Results on 15 molecules are retold here after ChEMBL document CHEMBL1132968, “Substituent effects on the antibacterial activity of nitrogen-carbon-linked (azolylphenyl)oxazolidinones with expanded activity against the fastidious gram-negative organisms Haemophilus influenzae and Moraxella catarrhalis” (2000).

Values after ≈ are worked out from the molar mass of the structure shown. Some results are limits rather than exact numbers.

Type in all cases: functional
For one assay, the system named is Haemophilus influenzae. The assay can be described thus: Inhibitory activity against Haemophilus influenzae UC30063.
The subject of assay [1] is Staphylococcus epidermidis. The assay can be described thus: Inhibitory activity against Methicillin-resistant Staphylococcus epidermidis UC12084.
A further assay concerns Moraxella catarrhalis. The assay can be described thus: Inhibitory activity against Moraxella catarrhalis UC30610.
The subject of assay [2] is Staphylococcus aureus. In words: Inhibitory activity against Methicillin-susceptible Staphylococcus aureus UC9213.
The test system of assay [3] is Staphylococcus aureus. The assay can be described thus: Inhibitory activity against Methicillin-resistant Staphylococcus aureus UC6685.
For another assay, the system named is Streptococcus pneumoniae. In words: Inhibitory activity against Streptococcus pneumoniae UC9912.
For a further assay, the system named is Enterococcus faecalis. The assay can be described thus: Inhibitory activity against Enterococcus faecalis UC9217.

In the case of `CC(=O)NC[C@H]1CN(c2ccc(-n3cc(C#C[Si](C)(C)C)cn3)c(F)c2)C(=O)O1`, the MIC in the assay with Haemophilus influenzae is > 16 µg/mL; in assay [1], 2 µg/mL (≈ 4.82 µM); with Moraxella catarrhalis it was > 16 µg/mL; against Staphylococcus aureus [2] it was 4 µg/mL (≈ 9.65 µM); in the assay with Staphylococcus aureus [3], 4 µg/mL (≈ 9.65 µM); with Streptococcus pneumoniae, 2 µg/mL (≈ 4.82 µM). In the assay on Enterococcus faecalis, the MIC turned out to be 8 µg/mL (≈ 19.3 µM).
On to `CC(=O)NC[C@H]1CN(c2ccc(-n3ccc(C)n3)c(F)c2)C(=O)O1`, for which the MIC against Haemophilus influenzae is > 16 µg/mL; in assay [1], 1 µg/mL (≈ 3.01 µM); in the assay on Moraxella catarrhalis it was 16 µg/mL (≈ 48.1 µM); against Staphylococcus aureus [2], 4 µg/mL (≈ 12 µM); in the assay on Staphylococcus aureus [3] it was 4 µg/mL (≈ 12 µM); against Streptococcus pneumoniae, 1 µg/mL (≈ 3.01 µM). In the assay with Enterococcus faecalis, the MIC stood at 4 µg/mL (≈ 12 µM).
For `C#Cc1cnn(-c2ccc(N3C[C@H](CNC(C)=O)OC3=O)cc2F)c1`, the MIC in the assay on Haemophilus influenzae was > 16 µg/mL; in assay [1], 1 µg/mL (≈ 2.92 µM); against Moraxella catarrhalis it was 8 µg/mL (≈ 23.4 µM); in the assay with Staphylococcus aureus [2], 2 µg/mL (≈ 5.84 µM); with Staphylococcus aureus [3] it was 2 µg/mL (≈ 5.84 µM); in the assay with Streptococcus pneumoniae, 0.5 µg/mL (≈ 1.46 µM). Further, the MIC against Enterococcus faecalis was determined as 2 µg/mL (≈ 5.84 µM).
Take `CC(=O)NC[C@H]1CN(c2ccc(-n3cc(CO)nn3)c(F)c2)C(=O)O1`: the MIC came to 4 µg/mL (≈ 11.5 µM) in the assay with Haemophilus influenzae; 0.5 µg/mL (≈ 1.43 µM) in assay [1]; 2 µg/mL (≈ 5.73 µM) against Moraxella catarrhalis; 4 µg/mL (≈ 11.5 µM) against Staphylococcus aureus [2]; 4 µg/mL (≈ 11.5 µM) against Staphylococcus aureus [3]; 0.25 µg/mL (≈ 0.716 µM) with Streptococcus pneumoniae. Besides, the MIC with Enterococcus faecalis was found to be 2 µg/mL (≈ 5.73 µM).
Take `CC(=O)NC[C@H]1CN(c2ccc(-n3ccc(NC(C)=O)n3)c(F)c2)C(=O)O1`: the MIC against Haemophilus influenzae is > 16 µg/mL; in assay [1] it was 2 µg/mL (≈ 5.33 µM); against Moraxella catarrhalis it was > 16 µg/mL; against Staphylococcus aureus [2], 8 µg/mL (≈ 21.3 µM); against Staphylococcus aureus [3], 8 µg/mL (≈ 21.3 µM); against Streptococcus pneumoniae it was 0.5 µg/mL (≈ 1.33 µM). Moreover, in the assay with Enterococcus faecalis, the MIC is 4 µg/mL (≈ 10.7 µM).
For the molecule `CC(=O)NC[C@H]1CN(c2ccc(-n3cc(I)cn3)c(F)c2)C(=O)O1`, the MIC is > 16 µg/mL with Haemophilus influenzae; 1 µg/mL (≈ 2.25 µM) in assay [1]; 8 µg/mL (≈ 18 µM) against Moraxella catarrhalis; 2 µg/mL (≈ 4.5 µM) against Staphylococcus aureus [2]; 2 µg/mL (≈ 4.5 µM) against Staphylococcus aureus [3]; 0.5 µg/mL (≈ 1.13 µM) in the assay on Streptococcus pneumoniae. The molecule further displayed an MIC against Enterococcus faecalis of 2 µg/mL (≈ 4.5 µM).
`CCOC(=O)CCc1ccn(-c2ccc(N3C[C@H](CNC(C)=O)OC3=O)cc2F)c1`: the MIC is > 16 µg/mL against Haemophilus influenzae; 1 µg/mL (≈ 2.4 µM) in assay [1]; 2 µg/mL (≈ 4.79 µM) with Moraxella catarrhalis; 4 µg/mL (≈ 9.58 µM) in the assay on Staphylococcus aureus [2]; 4 µg/mL (≈ 9.58 µM) against Staphylococcus aureus [3]; 0.5 µg/mL (≈ 1.2 µM) in the assay with Streptococcus pneumoniae. Moreover, in the assay on Enterococcus faecalis, the MIC was 2 µg/mL (≈ 4.79 µM).
Regarding `CC(=O)NC[C@H]1CN(c2ccc(-n3ncnn3)c(F)c2)C(=O)O1`, the MIC against Haemophilus influenzae was determined as 8 µg/mL (≈ 25 µM); in assay [1], 1 µg/mL (≈ 3.12 µM); against Moraxella catarrhalis, 8 µg/mL (≈ 25 µM); in the assay with Staphylococcus aureus [2] it was 2 µg/mL (≈ 6.24 µM); against Staphylococcus aureus [3], 2 µg/mL (≈ 6.24 µM); against Streptococcus pneumoniae, 0.5 µg/mL (≈ 1.56 µM). Further, in the assay with Enterococcus faecalis, the MIC was found to be 1 µg/mL (≈ 3.12 µM).
As for `CC(=O)NC[C@H]1CN(c2ccc(-n3ccc(NC(=O)OC(C)(C)C)n3)c(F)c2)C(=O)O1`, the MIC against Haemophilus influenzae is > 16 µg/mL; in assay [1], 2 µg/mL (≈ 4.61 µM); with Moraxella catarrhalis it was 8 µg/mL (≈ 18.5 µM); against Staphylococcus aureus [2] it was 4 µg/mL (≈ 9.23 µM); against Staphylococcus aureus [3], 2 µg/mL (≈ 4.61 µM); against Streptococcus pneumoniae it was 0.5 µg/mL (≈ 1.15 µM). In the assay on Enterococcus faecalis, this molecule returned an MIC of 2 µg/mL (≈ 4.61 µM).
`CNC(=O)c1cn(-c2ccc(N3C[C@H](CNC(C)=O)OC3=O)cc2F)nn1`: the MIC against Haemophilus influenzae is > 16 µg/mL; in assay [1] it was 2 µg/mL (≈ 5.31 µM); against Moraxella catarrhalis it was > 16 µg/mL; in the assay with Staphylococcus aureus [2] it was 8 µg/mL (≈ 21.3 µM); with Staphylococcus aureus [3], 4 µg/mL (≈ 10.6 µM); against Streptococcus pneumoniae, 1 µg/mL (≈ 2.66 µM). The MIC with Enterococcus faecalis stood at 8 µg/mL (≈ 21.3 µM).
Regarding `CC(=O)NC[C@H]1CN(c2ccc(-n3ccc(N)n3)c(F)c2)C(=O)O1`, the MIC in the assay on Haemophilus influenzae came to 16 µg/mL (≈ 48 µM); in assay [1], 1 µg/mL (≈ 3 µM); with Moraxella catarrhalis, 16 µg/mL (≈ 48 µM); in the assay with Staphylococcus aureus [2], 2 µg/mL (≈ 6 µM); against Staphylococcus aureus [3] it was 4 µg/mL (≈ 12 µM); with Streptococcus pneumoniae it was 0.5 µg/mL (≈ 1.5 µM). The molecule also yielded an MIC in the assay on Enterococcus faecalis of 4 µg/mL (≈ 12 µM).
`CC(=O)NC[C@H]1CN(c2ccc(-n3ccc(C(F)(F)F)n3)c(F)c2)C(=O)O1`: the MIC was > 16 µg/mL in the assay on Haemophilus influenzae; 2 µg/mL (≈ 5.18 µM) in assay [1]; > 16 µg/mL against Moraxella catarrhalis; 4 µg/mL (≈ 10.4 µM) in the assay on Staphylococcus aureus [2]; 4 µg/mL (≈ 10.4 µM) against Staphylococcus aureus [3]; 1 µg/mL (≈ 2.59 µM) in the assay on Streptococcus pneumoniae. For the same molecule, the MIC with Enterococcus faecalis was found to be 8 µg/mL (≈ 20.7 µM).
Regarding `CC(=O)NC[C@H]1CN(c2ccc(-n3nccn3)c(F)c2)C(=O)O1`, the MIC against Haemophilus influenzae was > 16 µg/mL; in assay [1], 1 µg/mL (≈ 3.13 µM); with Moraxella catarrhalis, > 16 µg/mL; against Staphylococcus aureus [2], 4 µg/mL (≈ 12.5 µM); with Staphylococcus aureus [3], 2 µg/mL (≈ 6.26 µM); with Streptococcus pneumoniae it was 1 µg/mL (≈ 3.13 µM). In the assay on Enterococcus faecalis, this molecule registered an MIC of 4 µg/mL (≈ 12.5 µM).
As to `CC(=O)NC[C@H]1CN(c2ccc(-n3cnc(C#N)n3)c(F)c2)C(=O)O1`, the MIC against Haemophilus influenzae came out at 16 µg/mL (≈ 46.5 µM); in assay [1], 2 µg/mL (≈ 5.81 µM); against Moraxella catarrhalis, 16 µg/mL (≈ 46.5 µM); against Staphylococcus aureus [2] it was 4 µg/mL (≈ 11.6 µM); in the assay with Staphylococcus aureus [3], 2 µg/mL (≈ 5.81 µM); with Streptococcus pneumoniae, 1 µg/mL (≈ 2.9 µM). The MIC in the assay with Enterococcus faecalis came to 4 µg/mL (≈ 11.6 µM).
Consider `CNC(=O)c1cnn(-c2ccc(N3C[C@H](CNC(C)=O)OC3=O)cc2F)c1`, for which the MIC is > 16 µg/mL in the assay with Haemophilus influenzae; 2 µg/mL (≈ 5.33 µM) in assay [1]; 16 µg/mL (≈ 42.6 µM) against Moraxella catarrhalis; > 16 µg/mL against Staphylococcus aureus [2]; 0.5 µg/mL (≈ 1.33 µM) with Streptococcus pneumoniae; 16 µg/mL (≈ 42.6 µM) against Enterococcus faecalis.
